From US9814732B2, “Ulipristal acetate for prevention and treatment of breast tumors” (LABORATOIRE HRA-PHARMA, priority 2012, dated 2017)

What was measured:
[1] = tested on: human breast tissue carrying BRCA1 mutations, xenografts; assay: Ki67 mitotic index in BRCA1 mutated human breast tissue xenografted in nude mice; format: in vivo; settings: E2+P+UPA vs E2+P, lobular and ductal cells, 28 days
Method: Mitotic index was calculated using the Ki67 antibody, and was determined for each breast tissue grafted into mice. Immunohistochemical analyses were performed using the BOND-MAX workstation (Leica, Nanterre, France). Paraffin sections of breast tissue xenografts were de-waxed and rehydrated before antigen retrieval using citrate retrieval solution (pH 6.0) for Ki67 antibody or EDTA retrieval solution (pH 9.0) for PR and ERalpha antibodies, for 30 min. Sections were then incubated with Ki67 at 1:100 (Novocastra, NCL5 L-Ki67-MM1), PR at 1:80 (Biogenex, MU-328-UC) or ER at 1:300 (Novocastra, NCL-L6 ER-6F11) monoclonal antibodies. For signal detection, the Kit Bond Polymer Refire Detection was used. Reagents were purchased from Menarini-Diagnostic (Rungis, France). A negative control (omitting the first antibody) was included in each set. For each marker, determination of the ratio of positive cells was performed on a total of 1 000 lobular and 1 000 ductal luminal cells in the 4 breast tissue fragments grafted into each mouse. For each experiment, the final percentages for each treatment were the mean of percentages obtained in the four mice per group.
Mutated breast tissue samples were obtained from 5 women (36-57 years old) carrying mutations for BRCA1.
Xenografts were performed as described above (Example 2). […]

T-47D cells = assay: Tritiated thymidine incorporation (proliferation) in T-47D cells; format: cell-based, human; settings: 48 h
Method: After seeding, cells were cultured for 24 h in serum and phenol red free medium. Then treatments were carried out in a phenol red free medium containing 5% dextran-charcoal stripped serum. Cells were treated with P or DEX (100 nM), alone or in combination with UPA, RU (1 nM to 1 μM) or CDB-3877 (100 nM). Control cells were treated with ethanol, at […] 1:1000 final ethanol concentration alone as vehicle or E2 (10 nM).
After 24 h of hormonal treatment, cells were incubated with [methyl-1 3H] thymidine (Perkin Elmer, Courtaboeuf, France) for 48 h or 20 h for KBE or cancer cells, respectively at 37° C. After incubation cells were washed twice with PBS 1× and once with 5% trichloroacetic acid (TCA). Cells were incubated in 5% TCA for 15 min at 4° C. and lysed in NaOH 0.1 N for 30 min at 37° C. The total cell lysate was added to 5 ml of Ecolite scintillation liquid (MP biomedical, Illkirch, France) and radioactivity was counted with a β-counter HIDEX 300SL (ScienceTec, Courtaboeuf, France).

[2] = Hormone concentrations in serum of pellet-treated athymic mice; format: in vivo; settings: female, NMRI nu/nu athymic, mouse, other: steroid pellets grafted onto the neck, 20 mg pellet (P from day 14, UPA from day 1), day 28, read-out: concentration in mice serum (mean±SEM)
Method: (§1) Four weeks old ovariectomized female NMRInu/nu 20 athymic mice were purchased from Janvier laboratory (Le Genest Saint Isle, France). Breast tissues samples were obtained from 6 women (aged 29-42 years). Human mammary gland tissue was cut into 2×2×2 mm fragments and 4 fragments were then subcutaneously xenografted onto the back of 4 mice per group. Four treatment groups were performed: control, E2, E2+P and E2+P+UPA. Treatments were administered by grafting steroid pellets onto the neck of each mouse. The experimental conditions were initially determined by using a dose range of hormones mixed with cholesterol into the pellets. Blood sample assays were performed after 2 weeks and 4 weeks of treatment to measure plasmatic hormonal concentrations. Finally, the dose of 0.3 mg for E2 and 20 mg for P and UPA were used, as it provides the expected blood concentrations. For the control groups, pellets containing only cholesterol were used. To reproduce menstrual cycle conditions, mice were grafted on the first day of experiment with cholesterol, E2 and/or UPA containing pellets and on the fourteen day with cholesterol or progesterone containing pellets in control and E2 groups, or in E+P and E2+P+UPA groups, respectively. Twenty eight days after the start of experiment, mice were sacrificed. Blood was collected for each mouse, and serum was frozen at −20° C. until hormone concentrations
Estradiol was measured by radioimmunoassay using Clinical Assays Estradiol-2 (Sorin Biomedica Diagnostics SpA, Saluggia, Italia). Progesterone levels were evaluated by UPLC-MSMS using Acquity UPLC and Quattro Premier XE (Waters, Milford Mass., USA).
UPA concentrations were measured using LC-MS/MS technique by MPI Research (State College, Pa., USA).

[3] = tested on: normal human breast tissues xenografts; assay: Ki67 mitotic index in normal human breast tissue xenografted in athymic mice; format: in vivo; settings: E2+P+UPA vs E2 and E2+P groups, lobules and ducts, UPA 20 mg pellet, 28 days
Excerpt: Breast tissues samples were obtained from 6 women (aged 29-42 years) undergoing surgery for reduction mammoplasty, with their informed consent according to the French law on clinical experimentation.
as §1
Mitotic index was calculated using the Ki67 antibody, and was determined for each breast tissue grafted into mice. Immunohistochemical analyses were performed using the BOND-MAX workstation (Leica, Nanterre, France). Paraffin sections of breast tissue xenografts were de-waxed and rehydrated before antigen retrieval using citrate retrieval solution (pH 6.0) for Ki67 antibody or EDTA retrieval solution (pH 9.0) for PR and ERalpha antibodies, for 30 min. […]

hPR-A and hPR-B = assay: MMTV-Luc reporter gene transactivation in HBE cells transfected with hPR-A and/or hPR-B; format: cell-based, human
Method: T-47D and MCF-7 cell lines were respectively maintained in RPMI 1640 and in DMEM medium supplemented with 10% fetal calf serum (PAA Laboratory, Les Mureaux, France). […] Normal human breast epithelial cell (HBE) primary cultures were obtained from 20 women (aged 17-50 years). […] HBE cells were maintained in HAM F10 medium (PAA Laboratory, Les Mureaux, France) containing hydrocortisone (5 ng/ml), Triiodo-L-thyronine (6.5 ng/ml), choleratoxin (10 ng/ml), transferrin (5 mg/ml), insulin (0.016 U/ml), epidermal growth factor (10 ng/ml) (Sigma, St Quentin Fallavier, France) and 5% human serum (Etablissement Français du Sang).
After seeding, cells were cultured for 24 h in serum and phenol red free medium. Then treatments were carried out in a phenol red free medium containing 5% dextran-charcoal stripped serum. […] Control cells were treated with ethanol, at 10 1:1000 final ethanol concentration alone as vehicle or E2 (10 nM).
Cells were transfected with reporter gene plasmids containing glucocorticoid and progesterone responsive elements (GRE/PRE): 1) the MMTV-Luc is a Mouse Mammary Tumor Virus Long Terminal Repeat promoter containing one GRE/PRE palindrome and three GRE/PRE hemi-palindromes upstream to firefly luciferase gene in pFC31 vector, 2) the GRELuc contains six copies of GRE/PRE palindrome upstream to firefly luciferase gene in pBL vector. When indicated, HBE cells were transfected with human PR isoforms hPR-A and hPR-B expression plasmids constructed in POP3 vectors. Rous Sarcoma Virus promoter upstream to beta galactosidase gene (pRSV-β-Gal) was transfected in each experiment as control. Transfections were performed according to the manufacturer instructions using Lipofectamine or Lipofectamine LTX Reagents (Invitrogen, Cergy-Pontoise, France) for breast cancer cell lines or HBE cells, respectively. After 24 h of transfection, breast cancer and HBE cells were treated with hormones for 24 h or 48 h, respectively. At the end of the experiment, cells were lysed and luciferase activity was determined using the Luciferase Assay System (Promega, Charbonnières-les-bains, France). Beta galactosidase activity was assessed using the Galacto Star kit (Applied Biosystems, Courtaboeuf, France) to normalize luciferase activity data.

With `CC(=O)O[C@]1(C(C)=O)CCC2C3CCC4=CC(=O)CCC4=C3[C@@H](c3ccc(N(C)C)cc3)C[C@@]21C` (stereo partly drawn) [UPA, 17[…]-acetoxy-11[…]-[4-N,N-dimethylamino-phenyl)-19-norpregna-4,9-diene-3,20-dione] the “proliferation (Ki67 mitotic index) stimulated by E2+P” value [1] was “exhibited antiproliferative activity”, the “cell proliferation ([3H] thymidine incorporation), compound alone” value (T-47D cells; 100 nM) was “had no effect on proliferation” and the “effect of UPA on P-mediated proliferation change” value (T-47D cells; P 100 nM + UPA 100 nM) was “reversed P anti-proliferative activity”. For the same molecule, the concentration at 28 days [2] was 63.5 ± 10.5 ng/mL, the “proliferation rate (Ki67) of normal epithelial breast cells” value [3] was “does not significantly influence the proliferation rate” and the “inhibition of P induced MMTV-Luc transactivation” value (hPR-A and hPR-B; HBE cells co-transfected with hPR-A and hPR-B, P 100 nM, antagonist 1 to 1000 nM) was “inhibited P induced MMTV11 Luc transactivation in a dose dependent manner from 1 000 to 10 nM”. The “antagonist performance between PR isoforms (MMTV-Luc)” value (hPR-A and hPR-B; HBE cells transfected with only hPR-A or hPR-B) was “No difference with increasing the levels of each PR isoform was seen on UPA antagonist performance”, the “lowest concentration necessary to exert a complete antagonist activity” value (hPR-A and hPR-B; HBE cells, MMTV-Luc, P 100 nM) was “A hundred” and the “progestational agonist properties on reporter gene transcription” value (hPR-A and hPR-B; HBE cells, compound alone) was “did not exhibit progestational agonist properties”.
